Data taken from patent US20260015350A1, “AZAQUINAZOLINE PAN-KRAS INHIBITORS” (Mirati Therapeutics, Inc., priority 2022, published 2026).

How the values were obtained:
[1] = tested on: KRas-mediated phosphorylation of ERK in H358 cells; assay: Inhibition of KRas-mediated phosphorylation of ERK (Cisbio HTRF pERK), H358 cells; format: cell-based; conditions: Homo sapiens, NCI-H358, HTRF pERK
Outline: (§1)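 Each compound was tested at 10 concentrations, threefold apart with 10 uM the highest, for 3 hrs on 6,000 seeded cells; final DMSO was 0.8% and Trametinib (0.2 uM) served as Min control. Lysed cells were analysed for pERK by HTRF.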

KRas^G12V = target: T1, KRas^G12V (Homo sapiens, UniProt P01116, G12V); assay: KRas binding assay (TR-FRET tracer displacement), KRas G12V
T1 construct: Biotinylated KRas (corresponding to amino acids 1-169, produced at Accelegan Inc.); biotin (biotinylated); purchased Accelegan Inc
T1 sequence (P01116 1-169 isoform P01116-2 G12V): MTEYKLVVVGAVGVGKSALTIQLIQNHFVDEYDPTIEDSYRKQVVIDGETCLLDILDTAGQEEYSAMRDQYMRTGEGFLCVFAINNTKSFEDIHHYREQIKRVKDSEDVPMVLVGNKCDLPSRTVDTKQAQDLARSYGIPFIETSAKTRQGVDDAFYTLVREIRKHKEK

KRas^G12D = target: T2, KRas^G12D (Homo sapiens, UniProt P01116, G12D); assay: KRas binding assay (TR-FRET tracer displacement), KRas G12D
T2 construct: Biotinylated KRas (corresponding to amino acids 1-169, produced at Accelegan Inc.); biotin (biotinylated); purchased Accelegan Inc
T2 sequence (P01116 1-169 isoform P01116-2 G12D): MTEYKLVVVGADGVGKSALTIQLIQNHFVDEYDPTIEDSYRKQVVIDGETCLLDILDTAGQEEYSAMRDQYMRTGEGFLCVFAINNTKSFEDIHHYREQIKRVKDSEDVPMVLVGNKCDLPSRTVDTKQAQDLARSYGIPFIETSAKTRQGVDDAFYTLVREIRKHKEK

[2] = tested on: KRas-mediated phosphorylation of ERK in AsPC-1 cells; assay: Inhibition of KRas-mediated phosphorylation of ERK (Cisbio HTRF pERK), AsPC-1 cells; format: cell-based; conditions: Homo sapiens, ASPC1, AsPC-1 cells; HTRF pERK
Outline: as §1

[3] = tested on: KRas-mediated phosphorylation of ERK in HCT116 cells; assay: Inhibition of KRas-mediated phosphorylation of ERK (Cisbio HTRF pERK), HCT116 cells; format: cell-based; conditions: Homo sapiens, HCT-116, HTRF pERK
Outline: as §1

[4] = tested on: KRas-mediated phosphorylation of ERK in PSN1 cells; assay: Inhibition of KRas-mediated phosphorylation of ERK (Cisbio HTRF pERK), PSN1 cells; format: cell-based; conditions: Homo sapiens
Outline: (§2)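 Overnight culture at 37° C./5% CO2 in RPMI containing 10% FBS, seeded 6,000 cells per well, preceded the assay. A covered 4-hour incubation at room temperature followed, then HTRF signal for phosphorylated ERK was measured.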

[5] = tested on: KRas-mediated phosphorylation of ERK in MKN1 cells; assay: Inhibition of KRas-mediated phosphorylation of ERK (Cisbio HTRF pERK), MKN1 cells; format: cell-based; conditions: Homo sapiens, MKN-1
Outline: as §2

[6] = tested on: KRas-mediated phosphorylation of ERK in A549 cells; assay: Inhibition of KRas-mediated phosphorylation of ERK (Cisbio HTRF pERK), A549 cells; format: cell-based; conditions: Homo sapiens, HTRF pERK
Outline: as §1

KRas^G12R = target: T3, KRas^G12R (Homo sapiens, UniProt P01116, G12R); assay: KRas binding assay (TR-FRET tracer displacement), KRas G12R
T3 construct: Biotinylated KRas (corresponding to amino acids 1-169, produced at Accelegan Inc.); biotin (biotinylated); purchased Accelegan Inc
T3 sequence (P01116 1-169 isoform P01116-2 G12R): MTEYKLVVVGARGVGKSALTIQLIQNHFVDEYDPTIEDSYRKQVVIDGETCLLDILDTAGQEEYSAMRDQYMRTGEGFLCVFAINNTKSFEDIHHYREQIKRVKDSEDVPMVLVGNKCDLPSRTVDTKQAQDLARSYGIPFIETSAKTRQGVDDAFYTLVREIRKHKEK

[7] = tested on: KRas-mediated phosphorylation of ERK in H460 cells; assay: Inhibition of KRas-mediated phosphorylation of ERK (Cisbio HTRF pERK), H460 cells; format: cell-based; conditions: Homo sapiens, NCI-H460, HTRF pERK
Outline: as §1

[8] = tested on: KRas-mediated phosphorylation of ERK in H727 cells; assay: Inhibition of KRas-mediated phosphorylation of ERK (Cisbio HTRF pERK), H727 cells; format: cell-based; conditions: Homo sapiens, NCI-H727, H727 cells; HTRF pERK
Outline: as §1

Structure (SMILES): CCc1c(F)ccc2cc(O)cc(-c3ncc4c(N5CCC[C@@](C)(O)C5)nc(OC[C@]56CCCN5[C@H](COC)CC6)nc4c3F)c12 [Example 885, (R)-1-(7-(8-ethyl-7-fluoro-3-hydroxynaphthalen-1-yl)-8-fluoro-2-(((3S,7aR)-3-(methoxymethyl)tetrahydro-1H-pyrrolizin-7a(5H)-yl)methoxy)pyrido[4,3-d]pyrimidin-4-yl)-3-methylpiperidin-3-ol]
- IC50 [1]: 7 nM
- IC50 (KRas^G12V): < 2 nM
- IC50 (KRas^G12D): < 2 nM
- IC50 [2]: 14 nM
- IC50 [3]: 16 nM
- IC50 [4]: 1320 nM
- IC50 [5]: 5 nM
- IC50 [6]: 30 nM
- IC50 (KRas^G12R): < 2 nM
- IC50 [7]: 8 nM
- IC50 [8]: 39 nM

Structure (SMILES): CCc1c(F)ccc2cc(O)cc(-c3ncc4c(N5CC6CCC(C5)C6(F)F)nc(OC[C@@]56CCCN5C[C@H](F)C6)nc4c3F)c12 [Example 869, 4-(4-(8,8-difluoro-3-azabicyclo[3.2.1]octan-3-yl)-8-fluoro-2-(((2R,7aS)-2-fluorotetrahydro-1H-pyrrolizin-7a(5H)-yl)methoxy)pyrido[4,3-d]pyrimidin-7-yl)-5-ethyl-6-fluoronaphthalen-2-ol]
- IC50 [1]: 922 nM
- IC50 (KRas^G12V): 116 nM
- IC50 (KRas^G12D): 210 nM
- IC50 [2]: 3600 nM
- IC50 [3]: 1200 nM
- IC50 [4]: > 10000 nM
- IC50 [5]: 290 nM
- IC50 [6]: 2760 nM
- IC50 (KRas^G12R): 26 nM
- IC50 [7]: 271 nM
- IC50 [8]: 4520 nM

Structure (SMILES): CCc1c(F)ccc2cc(O)cc(-c3ncc4c(N5CC6CCC(C(=O)N(C)C)(C6)C5)nc(OC[C@@]56CCCN5C[C@H](F)C6)nc4c3F)c12 (stereo partly drawn) [Example 824, 3-(7-(8-ethyl-7-fluoro-3-hydroxynaphthalen-1-yl)-8-fluoro-2-(((2R,7aS)-2-fluorotetrahydro-1H-pyrrolizin-7a(5H)-yl)methoxy)pyrido[4,3-d]pyrimidin-4-yl)-N,N-dimethyl-3-azabicyclo[3.2.1]octane-1-carboxamide]
- IC50 [1]: 69 nM
- IC50 (KRas^G12V): 4 nM
- IC50 (KRas^G12D): 11 nM
- IC50 [2]: 165 nM
- IC50 [3]: 502 nM
- IC50 [4]: > 10000 nM
- IC50 [5]: 167 nM
- IC50 [6]: 143 nM
- IC50 (KRas^G12R): 8 nM
- IC50 [7]: 136 nM
- IC50 [8]: 174 nM

Structure (SMILES): O=C1CC2(CCCN(c3nc(OC[C@@]45CCCN4C[C@H](F)C5)nc4c(F)c(-c5cc(O)cc6ccc(F)c(Cl)c56)ncc34)C2)C(=O)N1 (stereo partly drawn) [Example 774, 7-(7-(8-chloro-7-fluoro-3-hydroxynaphthalen-1-yl)-8-fluoro-2-(((2R,7aS)-2-fluorohexahydro-1H-pyrrolizin-7a-yl)methoxy)pyrido[4,3-d]pyrimidin-4-yl)-2,7-diazaspiro[4.5]decane-1,3-dione]
- IC50 [1]: 121 nM
- IC50 (KRas^G12V): < 2 nM
- IC50 (KRas^G12D): 2 nM
- IC50 [2]: 852 nM
- IC50 [3]: 506 nM
- IC50 [4]: 2340 nM
- IC50 [5]: 123 nM
- IC50 [6]: 924 nM
- IC50 (KRas^G12R): < 2 nM
- IC50 [7]: 434 nM
- IC50 [8]: 138 nM

Structure (SMILES): CCc1c(F)ccc2cc(O)cc(-c3ncc4c(N5CCOCC6(CNC(=O)N6)C5)nc(OC[C@@]56CCCN5C[C@H](F)C6)nc4c3F)c12 (stereo partly drawn) [Example 898, 10-(7-(8-ethyl-7-fluoro-3-hydroxynaphthalen-1-yl)-8-fluoro-2-(((2R,7aS)-2-fluorotetrahydro-1H-pyrrolizin-7a(5H)-yl)methoxy)pyrido[4,3-d]pyrimidin-4-yl)-7-oxa-1,3,10-triazaspiro[4.6]undecan-2-one]
- IC50 [1]: 56 nM
- IC50 (KRas^G12V): < 2 nM
- IC50 (KRas^G12D): < 2 nM
- IC50 [2]: 250 nM
- IC50 [3]: 1010 nM
- IC50 [4]: > 10000 nM
- IC50 [5]: 196 nM
- IC50 [6]: 355 nM
- IC50 (KRas^G12R): < 2 nM
- IC50 [7]: 252 nM
- IC50 [8]: 836 nM
